# Assay results taken from article PMC11892870 (PLOS One, 2025).
# Read-outs that look alike come from different tables or passages of the source.
# Tests used:
# AChE = AChE (Homo sapiens, UniProt P22303); experiment: biochemical
# BChE = BChE (Homo sapiens, UniProt P06276); experiment: biochemical; conditions: mean ± SD, n = 3; read-out: BChE inhibition IC50
# Aβ1-42 = target: T1, Aβ1-42 (Homo sapiens, UniProt P05067); experiment: Inhibition of Aβ1-42 aggregation (fibril formation), ThT fluorescence; format: biochemical
# T1 construct: Aβ1-42 was firstly dissolved in HFIP
# T1 sequence (P05067 672-713 limits assumed): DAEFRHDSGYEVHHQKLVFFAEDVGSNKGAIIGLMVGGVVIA
# From the text: (§1) Then, the solvent was dried in hood using nitrogen, and reconstituted to working solution with 0.5 M phosphate buffer (pH 7.4).
# Aβ1-42 fibrils = target: T2, Aβ1-42 fibrils (Homo sapiens, UniProt P05067); experiment: biochemical; conditions: read-out: Aβ destabilization IC50
# T2 construct: Aβ1-42 was firstly dissolved in HFIP
# T2 sequence (P05067 672-713 limits assumed): as above
# From the text: as §1
# DPPH radical scavenging = conditions: read-out: Antioxidant DPPH IC50
# Method: (§2) The mixtures were kept in the dark for 30 minutes and then the absorbance was measured at 550 nm. In case of ABTS assay, ABTS radical cation (ABTS • + ) was prepared from a mixture of the ABTS stock solution (7 mM) and potassium persulfate (2.45 mM) in water. The mixture was then kept in the dark for 12-16 hours before use. Then, the ABTS • + solution was diluted in ethanol until the absorbance reached 0.70 ± 0.02 at […].
# (§3) Trolox was used as a positive control in both assays, while a mixture of ethanol and DPPH or ABTS • + solution served as the negative control. The percentage inhibition of DPPH and ABTS radicals was calculated using the following equation:
# (§4) DPPHandABTSinhibition%=A0−A1/A0×100
# (§5) A0 is the absorbance of the control and A1 is the absorbance of the sample.
# ABTS radical scavenging = conditions: read-out: Antioxidant ABTS IC50
# Method: as §2, §3, §4, §5
# [1] = Cytotoxicity in differentiated SH-SY5Y cells, MTT; format: cell-based; conditions: human
# Method: (§6) Neuroblastoma cells (SH-SY5Y) were maintained in humidified atmosphere at 37 °C with 5%CO2 in DMEM/F12 supplement with 10%FBS. Afterward, cells were treated for 6 days and replaced every 3 days with 1%FBS supplementation and 10 μM of retinoic acid. Cells were seeded (100,000 cells per well) in 96-well microplates and cultured for 48 hours before treatment. […] Cell viability was assessed using MTT assay. Absorbance at 570 nm was measured for both treated and untreated samples, with viability expressed as a percentage relative to the control.
# [2] = system: scopolamine-induced amnesic mice; experiment: Modified Y-maze test, scopolamine-induced amnesia; format: in vivo
# [3] = system: scopolamine-induced amnesic mice; experiment: Novel object recognition test, scopolamine-induced amnesia; format: in vivo
# [4] = system: scopolamine-induced amnesic mice; experiment: Morris water maze test, scopolamine-induced amnesia; format: in vivo
# SH-SY5Y cells = experiment: Cytotoxicity in differentiated SH-SY5Y cells, MTT; format: cell-based; conditions: 100 µM, SH-SY5Y, MTT, average of 5
# Method: as §6
# male ICR mice = experiment: Locomotor activity and spontaneous alternation in Y-maze; format: in vivo; conditions: donepezil 3 mg/kg p.o., average of 7 mice
# Method: Scopolamine was dissolved in NSS. Donepezil and crude extract were dissolved in corn oil. Animal doses were calculated according to mice body weight. […].
# Sixty male ICR mice in age 6 weeks (34-44 g) were supplied from Northeast Laboratory Animal Center, KKU. Before conducting the experiments, they were acclimatized for a week with a 12h light-dark cycle and had free access to their diet and water. Their body weight was recorded every day. […] Investigators could not be blinded to the mouse groups due to the difference in code colors. However, the investigators who assessed the mouse’s behavior were blinded to the mouse code for providing unbiased data. The parameters related to behavioral changes were assessed including the number of arm entries, the exploration time spent, and the time spent in a preference quadrant.
# Locomotor activity was investigated in a black polyvinyl chamber Y maze. The size of the chamber is 40 cm long, 3 cm wide at the bottom and 10 cm wide at the top, and 12 cm high in each arm. Mice were first allowed to acclimate the chamber and freely moved in Y maze for 8 minutes. After acclimatization, the locomotor activity was measured for 1 hour following the treatment administration. The number of arm entries was recorded from the middle of the maze.
# [5] = read-out: Inhibition of Aβ formation IC50
# [6] = long-term memory (24 h delay), scopolamine 1 mg/kg i.p. alone
# [7] = short-term memory, scopolamine 1 mg/kg i.p. alone
# [8] = 0.1 µM, SH-SY5Y, MTT, average of 5, read-out: %Cell viability (cytotoxicity)
# [9] = 1 µM, SH-SY5Y, MTT, average of 5, read-out: %Cell viability (cytotoxicity)
# [10] = 10 µM, SH-SY5Y, MTT, average of 5, read-out: %Cell viability (cytotoxicity)
# [11] = 100 µM, SH-SY5Y, MTT, average of 5, read-out: %Cell viability (cytotoxicity)
# [12] = mean ± SD, n = 3, read-out: AChE inhibition IC50
# [13] = differentiated SH-SY5Y neuroblastoma cells, 0.1 µM, SH-SY5Y, MTT, average of 5, read-out: %Cell viability (cytotoxicity)
# [14] = differentiated SH-SY5Y neuroblastoma cells, 1 µM, SH-SY5Y, MTT, average of 5, read-out: %Cell viability (cytotoxicity)
# [15] = differentiated SH-SY5Y neuroblastoma cells, 10 µM, SH-SY5Y, MTT, average of 5, read-out: %Cell viability (cytotoxicity)
# [16] = differentiated SH-SY5Y neuroblastoma cells, 100 µM, SH-SY5Y, MTT, average of 5, read-out: %Cell viability (cytotoxicity)
# [17] = long-term memory (24 h delay), donepezil 3 mg/kg p.o. + scopolamine 1 mg/kg i.p.
# [18] = short-term memory, donepezil 3 mg/kg p.o. + scopolamine 1 mg/kg i.p.
# Chain of AChE (P22303 32-614): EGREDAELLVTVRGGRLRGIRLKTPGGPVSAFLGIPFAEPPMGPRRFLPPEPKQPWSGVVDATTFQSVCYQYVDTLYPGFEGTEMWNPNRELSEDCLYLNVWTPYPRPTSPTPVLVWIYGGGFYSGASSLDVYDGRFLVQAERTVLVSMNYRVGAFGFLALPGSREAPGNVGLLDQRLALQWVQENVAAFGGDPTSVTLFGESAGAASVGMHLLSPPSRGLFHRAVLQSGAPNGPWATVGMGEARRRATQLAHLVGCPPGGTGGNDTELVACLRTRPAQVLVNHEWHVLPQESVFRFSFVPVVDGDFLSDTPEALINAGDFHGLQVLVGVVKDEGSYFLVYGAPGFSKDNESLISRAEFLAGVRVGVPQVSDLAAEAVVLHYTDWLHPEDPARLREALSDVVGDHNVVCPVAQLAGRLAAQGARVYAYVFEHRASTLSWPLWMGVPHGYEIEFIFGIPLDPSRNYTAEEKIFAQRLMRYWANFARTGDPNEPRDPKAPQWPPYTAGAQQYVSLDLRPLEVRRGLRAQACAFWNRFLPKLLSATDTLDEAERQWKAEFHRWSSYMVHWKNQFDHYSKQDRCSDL
# Chain of BChE (P06276 29-602, species assumed): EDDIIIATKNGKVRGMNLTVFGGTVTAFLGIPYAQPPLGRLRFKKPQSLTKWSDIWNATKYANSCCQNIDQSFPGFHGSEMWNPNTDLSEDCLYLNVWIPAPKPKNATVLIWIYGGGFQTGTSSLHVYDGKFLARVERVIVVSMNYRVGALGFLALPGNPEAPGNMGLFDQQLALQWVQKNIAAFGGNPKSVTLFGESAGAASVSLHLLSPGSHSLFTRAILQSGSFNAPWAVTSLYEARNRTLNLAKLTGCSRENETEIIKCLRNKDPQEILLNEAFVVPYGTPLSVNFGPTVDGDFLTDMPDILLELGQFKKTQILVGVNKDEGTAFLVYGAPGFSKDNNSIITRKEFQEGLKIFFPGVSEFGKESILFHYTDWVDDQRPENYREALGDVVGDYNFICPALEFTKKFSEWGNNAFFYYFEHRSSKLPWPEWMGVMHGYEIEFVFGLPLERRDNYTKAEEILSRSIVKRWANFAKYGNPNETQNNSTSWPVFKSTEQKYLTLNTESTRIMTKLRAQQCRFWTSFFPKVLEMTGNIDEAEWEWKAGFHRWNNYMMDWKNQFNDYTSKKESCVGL
structure (smiles),measurement,setting,value
"COc1cc(OC)c2c(=O)cc(-c3ccccc3)oc2c1 [F1, 5,7-dimethoxyflavone]",IC50,AChE,181 ± 2.66 µM
same,IC50,BChE,92.19 ± 0.69 µM
same,IC50,Aβ1-42; [5],105 ± 1.34 µM
same,IC50,Aβ1-42 fibrils,75.9 ± 4.96 µM
same,IC50,DPPH radical scavenging,> 100 µM
same,IC50,ABTS radical scavenging,> 100 µM
same,viability at 0.1 µM,[1],104%
same,viability at 1 µM,[1],104%
same,viability at 10 µM,[1],103%
same,viability at 100 µM,[1],103%
CN1[C@@H]2C[C@@H](OC(=O)[C@H](CO)c3ccccc3)C[C@H]1[C@@H]1O[C@@H]12 [Scopolamine],%unfamiliar arm exploration,"[2]; long-term memory (24 hours), scopolamine 1 mg/kg i.p. alone",33.37%
same,%unfamiliar arm exploration,"[2]; short-term memory (30 min), scopolamine 1 mg/kg i.p. alone",31.09%
same,Time spent exploring the familiar object,[3]; [6],43.83 s
same,Time spent exploring the novel object,[3]; [6],27.21 s
same,Time spent exploring the familiar object,[3]; [7],63.40 s
same,Time spent exploring the novel object,[3]; [7],46.80 s
same,"Time to find the platform, Escape latency","[4]; acquisition phase Day 1, scopolamine 1 mg/kg i.p. alone",58.43 s
same,"Time to find the platform, Escape latency","[4]; acquisition phase Day 2, scopolamine 1 mg/kg i.p. alone",54.46 s
same,"Time to find the platform, Escape latency","[4]; acquisition phase Day 3, scopolamine 1 mg/kg i.p. alone",46.21 s
same,"Time to find the platform, Escape latency","[4]; acquisition phase Day 4, scopolamine 1 mg/kg i.p. alone",39.64 s
same,"Time to find the platform, Escape latency","[4]; acquisition phase Day 5, scopolamine 1 mg/kg i.p. alone",35.04 s
"COc1ccc(-c2oc3cc(OC)cc(OC)c3c(=O)c2OC)cc1 [F5, 3,5,7,4′-tetramethoxyflavone]",IC50,AChE,209.1 ± 0.82 µM
same,IC50,BChE,164 ± 5.13 µM
same,IC50,Aβ1-42,134 ± 5.08 µM
same,IC50,Aβ1-42 fibrils,51.3 ± 3.13 µM
same,IC50,DPPH radical scavenging,> 100 µM
same,IC50,ABTS radical scavenging,> 100 µM
same,viability at 0.1 µM,[1]; [8],99.9%
same,viability at 1 µM,[1]; [9],99.8%
same,viability at 10 µM,[1]; [10],98.8%
same,viability at 100 µM,[1]; [11],102%
"COc1cc(O)c2c(=O)c(OC)c(-c3ccccc3)oc2c1 [F4, 5-hydroxy-3,7-dimethoxyflavone]",IC50,AChE; [12],217.6 ± 1.84 µM
same,IC50,BChE,33.5 ± 2.97 µM
same,IC50,Aβ1-42; [5],97.1 ± 2.38 µM
same,IC50,Aβ1-42 fibrils,63.9 ± 1.83 µM
same,IC50,DPPH radical scavenging,> 100 µM
same,IC50,ABTS radical scavenging,> 100 µM
same,viability at 0.1 µM,[1]; [13],102%
same,viability at 1 µM,[1]; [14],103%
same,viability at 10 µM,[1]; [15],103%
same,viability at 100 µM,[1]; [16],80.5%
same,%Cell viability (cytotoxicity),SH-SY5Y cells,toxic
"COc1ccc(-c2cc(=O)c3c(OC)cc(OC)cc3o2)cc1 [F3, 5,7,4′-trimethoxyflavone]",IC50,AChE,106 ± 1.14 µM
same,IC50,BChE,152 ± 6.14 µM
same,IC50,Aβ1-42; [5],91.4 ± 4.67 µM
same,IC50,Aβ1-42 fibrils,39.5 ± 0.61 µM
same,IC50,DPPH radical scavenging,> 100 µM
same,IC50,ABTS radical scavenging,> 100 µM
same,viability at 0.1 µM,[1]; [8],101%
same,viability at 1 µM,[1]; [9],102%
same,viability at 10 µM,[1]; [10],102%
same,viability at 100 µM,[1]; [11],95.5%
COc1cc2c(cc1OC)C(=O)C(CC1CCN(Cc3ccccc3)CC1)C2 (stereo not drawn) [Donepezil],"Locomotor activity, total number of arm entries",male ICR mice,23.57
same,%unfamiliar arm exploration,"[2]; long-term memory (24 hours), donepezil 3 mg/kg p.o. + scopolamine 1 mg/kg i.p.",39.94%
same,%unfamiliar arm exploration,"[2]; short-term memory (30 min), donepezil 3 mg/kg p.o. + scopolamine 1 mg/kg i.p.",40.79%
same,Time spent exploring the familiar object,[3]; [17],32.11 s
same,Time spent exploring the novel object,[3]; [17],56.84 s
same,Time spent exploring the familiar object,[3]; [18],52.86 s
same,Time spent exploring the novel object,[3]; [18],64.31 s
same,"Time to find the platform, Escape latency","[4]; acquisition phase Day 1, donepezil 3 mg/kg p.o. + scopolamine 1 mg/kg i.p.",59.86 s
same,"Time to find the platform, Escape latency","[4]; acquisition phase Day 2, donepezil 3 mg/kg p.o. + scopolamine 1 mg/kg i.p.",49.00 s
same,"Time to find the platform, Escape latency","[4]; acquisition phase Day 3, donepezil 3 mg/kg p.o. + scopolamine 1 mg/kg i.p.",37.04 s
same,"Time to find the platform, Escape latency","[4]; acquisition phase Day 4, donepezil 3 mg/kg p.o. + scopolamine 1 mg/kg i.p.",27.71 s
same,"Time to find the platform, Escape latency","[4]; acquisition phase Day 5, donepezil 3 mg/kg p.o. + scopolamine 1 mg/kg i.p.",25.57 s
same,Time spent in the target quadrant,"[4]; probe test day 6, donepezil 3 mg/kg p.o. + scopolamine 1 mg/kg i.p.",18.39 s
"COc1cc(OC)c2c(=O)c(OC)c(-c3ccccc3)oc2c1 [F2, 3,5,7-trimethoxyflavone]",IC50,AChE; [12],237.1 ± 2.28 µM
same,IC50,BChE,233 ± 6.89 µM
same,IC50,Aβ1-42; [5],87.1 ± 4.51 µM
same,IC50,Aβ1-42 fibrils,83.9 ± 1.67 µM
same,IC50,DPPH radical scavenging,> 100 µM
same,IC50,ABTS radical scavenging,> 100 µM
same,viability at 0.1 µM,[1]; [13],103%
same,viability at 1 µM,[1]; [14],102%
same,viability at 10 µM,[1]; [15],102%
same,viability at 100 µM,[1]; [16],94%
same,%Cell viability (cytotoxicity),SH-SY5Y cells,toxic
"Cc1c(C)c2c(c(C)c1O)CCC(C)(C(=O)O)O2 (stereo not drawn) [Trolox, reference compound]",IC50,DPPH radical scavenging,24.6 ± 0.39 µM
same,IC50,ABTS radical scavenging,81.4 ± 4.67 µM
